From patent US6004950A, “2-aminopyridines as inhibitors of cyclooxygenase-2” (Merck Frosst Canada, Inc., priority 1998, dated 1999)

Legend:
[1] = target: T1, COX-1 (Homo sapiens, UniProt P23219); assay: Assay of COX-1 activity from U937 cell microsomes; assay type: biochemical; design: Assay of COX-1 Activity from U937 cell microsomes; endogenous in cells; host or cells: U937 cells, 100,000×g microsomal pellet; details: U937 cell microsomes, PGE2; read-out: COX-1 (IC50 mM) U-937
Protocol: Assay of COX-1 Activity from U937 cell microsomes
U 937 cells are pelleted by centrifugation at 500×g for 5 min and washed once with phosphate-buffered saline and repelleted. Cells are resuspended in homogenization buffer consisting of 0.1 M Tris-HCl, pH 7.4, 10 mM EDTA, 2 μg/ml leupeptin, 2 μg/ml soybean trypsin inhibitor, 2 μg/ml aprotinin and 1 mM phenyl methyl sulfonyl fluoride. The cell suspension is sonicated 4 times for 10 sec and is centrifuged at 10,000×g for 10 min at 4° C. The supernatant is centrifuged at 100,000×g for 1 hr at 4° C. The 100,000×g microsomal pellet is resuspended in 0.1 M Tris-HCl, pH 7.4, 10 mM EDTA to approximately 7 mg protein/ml and stored at -80° C.
Microsomal preparations are thawed immediately prior to use, subjected to a brief sonication, and then diluted to a protein concentration of 125 μg/ml in 0.1 M Tris-HCl buffer, pH 7.4 containing 10 mM EDTA, 0.5 mM phenol, 1 mM reduced glutathione and 1 μM hematin. Assays are performed in duplicate in a final volume of 250 μl. Initially, 5 μl of DMSO vehicle or drug in DMSO are added to 20 μl of 0.1 M Tris-HCl buffer, pH 7.4 containing 10 mM EDTA in wells of a 96-deepwell polypropylene titre plate. 200 μl of the microsomal preparation are then added and pre-incubated for 15 min at room temperature before addition of 25 μl of […] arachidonic acid in […] Tris-HCl and 10 mM EDTA, pH 7.4. Samples are incubated for 40 min at room temperature and the reaction is stopped by the addition of 25 μl of 1 N HCl. Samples are neutralized with 25 μl of 1 N NaOH prior to quantitation of PGE2 content by radioimmunoassay (Dupont-NEN or Amersham assay kits). Cyclooxygenase activity is defined as the difference between PGE2 levels in samples incubated in the presence of arachidonic acid and ethanol vehicle.
In the assay, inhibition is determined by measuring the amount of prostaglandin E2 (PGE2) synthesized in the presence of arachidonic acid, cyclooxygenase-1 or cyclooxygenase-2 and a putative inhibitor.

[2] = target: T2, COX-2 (Homo sapiens, UniProt P35354); assay: Whole cell assay for COX-2 using CHO transfected cell line CHO[hCOX-2], inhibition of PGE2 synthesis; assay type: cell-based; details: CHO[hCOX-2] cells, 10 μM AA, PGE2; read-out: COX-2 (IC50 mM) CHO
T2 construct: incubation of human whole blood with LPS, which induces COX-2; endogenous in cells; host or cells: heparinized fresh whole blood of human volunteers, incubated with LPS for 24 h
T2 sequence (P35354 18-604): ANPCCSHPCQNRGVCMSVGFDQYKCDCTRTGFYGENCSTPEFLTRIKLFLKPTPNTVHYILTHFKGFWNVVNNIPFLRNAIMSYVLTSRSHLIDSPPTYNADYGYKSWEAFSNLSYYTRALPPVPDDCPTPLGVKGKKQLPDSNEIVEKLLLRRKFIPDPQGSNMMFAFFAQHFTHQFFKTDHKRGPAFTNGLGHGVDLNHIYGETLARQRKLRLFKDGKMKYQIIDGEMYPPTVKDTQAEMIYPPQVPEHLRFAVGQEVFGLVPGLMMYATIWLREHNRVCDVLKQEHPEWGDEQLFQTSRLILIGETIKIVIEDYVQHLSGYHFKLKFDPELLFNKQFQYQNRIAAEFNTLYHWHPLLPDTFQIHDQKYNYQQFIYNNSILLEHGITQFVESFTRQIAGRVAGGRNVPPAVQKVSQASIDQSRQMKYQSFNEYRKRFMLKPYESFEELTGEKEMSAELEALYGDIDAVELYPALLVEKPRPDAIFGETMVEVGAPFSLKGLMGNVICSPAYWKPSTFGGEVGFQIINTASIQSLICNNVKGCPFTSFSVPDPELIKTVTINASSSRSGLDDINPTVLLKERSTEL

[3] = target: T2, COX-2; assay: Human whole blood assay, COX-2 (LPS-induced PGE2 production); assay type: cell-based; details: human whole blood, LPS-induced PGE2, 24 h; read-out: COX-2 (IC50 mM) HWB
Source text: (§1) As well, platelets in whole blood contain a large amount of the COX-1 enzyme. Immediately following blood clotting, platelets are activated through a thrombin-mediated mechanism. This reaction results in the production of thromboxane B2 (TxB2) via activation of COX-1. Thus, the effect of test compounds on TxB2 levels following blood clotting can be examined and used as an index for COX-1 activity. Therefore, the degree of selectivity by the test compound can be determined by measuring the levels of PGE2 after LPS induction (COX-2) and TxB2 following blood clotting (COX-1) in the same assay.
A. COX-2 (LPS-induced PGE2 production)
Fresh blood is collected in heparinized tubes by venipuncture from both male and female volunteers. The subjects have no apparent inflammatory conditions and have not taken any NSAIDs for at least 7 days prior to blood collection. Plasma is immediately obtained from a 2 mL blood aliquot to use as blank (basal levels of PGE2).

[4] = target: T1, COX-1; assay: Human whole blood assay, COX-1 (clotting-induced TxB2 production); assay type: cell-based; design: platelets in whole blood contain a large amount of the COX-1 enzyme; endogenous in cells; host or cells: fresh human whole blood without anticoagulant (platelets), clotted 1 h at 37° C; details: clotting-induced TxB2, 1 h, read-out: COX-1 (IC50 mM) HWB
Protocol: as §1, with “Human whole blood provides a protein and cell-rich milieu appropriate for the study of biochemical efficacy of anti-inflammatory compounds such as selective COX-2 inhibitors. […] This is consistent with the observation that COX-2 inhibitors have no effect on PGE2 production in normal blood. These inhibitors are active only after incubation of human whole blood with LPS, which induces COX-2. This assay can be used to evaluate the inhibitory effect of selective COX-2 inhibitors on PGE2 production. As” for “As”
B. COX-1 (Clotting-induced TxB2 production)
Fresh blood is collected into vacutainers containing no anticoagulants. […] The tubes are vortexed and incubated at 37° C. for 1 hour to allow blood to clot. At the end of incubation, serum is obtained by centrifugation (12,000×g for 5 min.). […]

T1 sequence (P23219 24-599): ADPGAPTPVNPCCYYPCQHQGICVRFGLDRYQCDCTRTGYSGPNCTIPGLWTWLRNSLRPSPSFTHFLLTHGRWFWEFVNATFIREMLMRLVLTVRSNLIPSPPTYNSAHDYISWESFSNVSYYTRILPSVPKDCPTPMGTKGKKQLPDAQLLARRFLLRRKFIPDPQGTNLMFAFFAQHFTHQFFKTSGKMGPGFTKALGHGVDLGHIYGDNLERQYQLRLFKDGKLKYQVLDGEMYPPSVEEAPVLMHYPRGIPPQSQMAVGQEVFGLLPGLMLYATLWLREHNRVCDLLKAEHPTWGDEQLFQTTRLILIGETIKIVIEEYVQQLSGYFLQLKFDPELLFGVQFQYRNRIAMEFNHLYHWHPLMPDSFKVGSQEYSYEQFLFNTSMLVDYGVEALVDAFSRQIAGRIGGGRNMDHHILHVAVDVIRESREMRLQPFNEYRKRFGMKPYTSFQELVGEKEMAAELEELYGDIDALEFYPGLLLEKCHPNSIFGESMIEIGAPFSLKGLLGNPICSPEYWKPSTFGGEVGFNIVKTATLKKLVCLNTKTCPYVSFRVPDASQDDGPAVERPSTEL

## CS(=O)(=O)c1ccc(-c2cc(C(F)(F)F)cnc2N2CCCCC2)cc1 [Example 2, 3-(4-Methylsulfonyl)phenyl-2-piperidin-1-yl-5-trifluoromethylpyridine]
[1]
  IC50: 0.003 mM
[2]
  IC50: 4 nM
[3]
  IC50: 0.0003 mM
[4]
  IC50: > 0.1 mM

## CS(=O)(=O)c1ccc(-c2cc(C(F)(F)F)cnc2N2CCC(F)(F)CC2)cc1 [Example 24, 2-(4,4-Difluoro)piperidin-1-yl-3-(4-methylsulfonyl)phenyl-5-trifluoromethylpyridine]
[1]
  IC50: > 0.01 mM
[2]
  IC50: 20 nM
[3]
  IC50: 0.0103 mM

## CS(=O)(=O)c1ccc(-c2cc(C(F)(F)F)cnc2N2CCCC(F)(F)C2)cc1 [Example 25, 2-(3,3-Difluoro)piperidin-1-yl-3-(4-methylsulfonyl)phenyl-5-trifluoromethylpyridine]
[1]
  IC50: > 0.01 mM
[2]
  IC50: 80 nM
[3]
  IC50: 0.0047 mM

## CS(=O)(=O)c1ccc(-c2cc(C(F)(F)F)cnc2N2CCC(F)CC2)cc1 [Example 26, 2-(4-Fluoro)piperidin-1-yl-3-(4-methylsulfonyl)phenyl-5-trifluoromethylpyridine]
[1]
  IC50: 0.003 to 0.01 mM
[2]
  IC50: 10 nM
[3]
  IC50: 0.0017 mM

## CS(=O)(=O)c1ccc(-c2cc(C(F)(F)F)cnc2N2CCOCC2)cc1 [Example 27, 3-(4-Methylsulfonyl)phenyl-2-morpholin-4-yl-5-trifluoromethylpyridine]
[1]
  IC50: > 0.01 mM
[2]
  IC50: 60 nM
[3]
  IC50: 0.0036 mM

## CS(=O)(=O)c1ccc(-c2cc(C(F)(F)F)cnc2N2CCSCC2)cc1 [Example 28, 3-(4-Methylsulfonyl)phenyl-2-thiomorpholin-4-yl-5-trifluoromethylpyridine]
[1]
  IC50: 0.003 to 0.01 mM
[2]
  IC50: 30 nM
[3]
  IC50: 0.0014 mM
